Laboratory results reported in the NIST ThermoML archive (doi:10.1021/acs.jced.6b00542).

Test: xn = mol fraction of the nth substance listed
Settings: for speed of sound: 100 kPa, Frequency=3 MHz, Sing-around technique in a fixed-path interferometer; for speed of sound / viscosity / mass density: Liquid; for viscosity / mass density: 102 kPa; for viscosity: Concentric cylinders viscometry; for mass density: Vibrating tube method; for surface tension liquid-gas: 294.5 K, Pendant drop shape

CCCCc1ccccc1 [butylbenzene] + CCCCCCCCCC
Settings | mass density [kg/m3] | speed of sound [m/s] | viscosity [mPa·s]
293.15 K, x1 = 0.1055 | 740.9 | 1259.2 | 0.917
293.15 K, x1 = 0.2096 | 752.3 | 1266.3 | 0.917
293.15 K, x1 = 0.3124 | 764.12 | 1273.8 | 0.921
293.15 K, x1 = 0.4141 | 776.38 | 1282.1 | 0.928
293.15 K, x1 = 0.5145 | 789.08 | 1291.3 | 0.94
293.15 K, x1 = 0.614 | 802.32 | 1301.1 | 0.957
293.15 K, x1 = 0.712 | 816.03 | 1312.2 | 0.981
293.15 K, x1 = 0.8094 | 830.38 | 1324.5 | 1
293.15 K, x1 = 0.9051 | 845.04 | 1338.2 | 1.03
293.15 K, x1 = 1 | 860.51 | 1353.7 | 1.05
303.15 K, x1 = 0.1055 | 733.32 | 1220.2 | 0.792
303.15 K, x1 = 0.2096 | 744.67 | 1227.4 | 0.794
303.15 K, x1 = 0.3124 | 756.43 | 1235 | 0.798
303.15 K, x1 = 0.4141 | 768.66 | 1243.5 | 0.805
303.15 K, x1 = 0.5145 | 781.31 | 1252.5 | 0.816
303.15 K, x1 = 0.614 | 794.51 | 1262.6 | 0.83
303.15 K, x1 = 0.712 | 808.16 | 1273.7 | 0.849
303.15 K, x1 = 0.8094 | 822.46 | 1286 | 0.866
303.15 K, x1 = 0.9051 | 837.07 | 1299.4 | 0.891
303.15 K, x1 = 1 | 852.49 | 1314.9 | 0.91
313.15 K, x1 = 0.1055 | 725.64 | 1181.5 | 0.693
313.15 K, x1 = 0.2096 | 736.97 | 1188.9 | 0.696
313.15 K, x1 = 0.3124 | 748.7 | 1196.6 | 0.7
313.15 K, x1 = 0.4141 | 760.89 | 1205.2 | 0.707
313.15 K, x1 = 0.5145 | 773.5 | 1214.3 | 0.716
313.15 K, x1 = 0.614 | 786.65 | 1224.4 | 0.727
313.15 K, x1 = 0.712 | 800.26 | 1235.6 | 0.743
313.15 K, x1 = 0.8094 | 814.51 | 1247.9 | 0.76
313.15 K, x1 = 0.9051 | 829.07 | 1261.2 | 0.781
313.15 K, x1 = 1 | 844.43 | 1276.6 | 0.801
323.15 K, x1 = 0.1055 | – | 1143.3 | 0.616
323.15 K, x1 = 0.2096 | – | 1150.8 | 0.619
323.15 K, x1 = 0.3124 | – | 1158.7 | 0.624
323.15 K, x1 = 0.4141 | – | 1167.3 | 0.63
323.15 K, x1 = 0.5145 | – | 1176.6 | 0.639
323.15 K, x1 = 0.614 | – | 1186.7 | 0.649
323.15 K, x1 = 0.712 | – | 1197.9 | 0.661
323.15 K, x1 = 0.8094 | – | 1210.2 | 0.677
323.15 K, x1 = 0.9051 | – | 1223.5 | 0.695
323.15 K, x1 = 1 | – | 1238.7 | 0.713

Settings | surface tension liquid-gas [mN/m]
x1 = 0.1055 | 23.9
x1 = 0.2096 | 24.3
x1 = 0.3124 | 24.6
x1 = 0.4141 | 24.9
x1 = 0.5145 | 25.4
x1 = 0.614 | 25.8
x1 = 0.712 | 26.5
x1 = 0.8094 | 26.7
x1 = 0.9051 | 27.9
